From patent US20100048597A1 (Novartis AG, priority 2006, published 2010)

What was measured:
CDK2/cyclinA = molecular target: T1, CDK2/cyclinA (Homo sapiens, UniProt P24941); test: CDK2/cyclinA kinase assay, IMAP fluorescence polarization; type: biochemical
T1 construct: purchased Millipore
Protocol: (§1) Kinase assays were performed on recombinant purified enzymes using the non-radioactive IMAP fluorescence polarization assay format.
(§2) Compound stocks were prepared and diluted in DMSO and were added to kinase reactions at a 1/100 dilution for a final concentration of 1% DMSO. The components were added together to final concentrations listed in the tables below and incubated for two hours at room temperature.
(§3) The reactions were stopped by addition of stop solution.
CDK2: final stop concentration is 1× Developer buffer (100% A), IMAP beads 1/400
(§4) The samples were allowed to incubate for one more hour at room temperature and then the fluorescence polarization was measured. The plate normalized millipolarization (mP) values were plotted against the log of compound concentration for each compound and IC50 values were calculated using the spotfire IC50 calculator and confirmed by visual analysis.

[1] = system: RNA Polymerase II CTD Serine2 Phosphorylation; test: H5 (Ser2) Ab High Content Screen: RNA Polymerase II CTD Serine2 Phosphorylation Assay in Hep3B cells; type: cell-based; details: Homo sapiens, 2 hours with compound, H5 antibody staining
Protocol: H5 (also referred as Ser2) Ab High Content Screen: RNA Polymerase II CTD Serine2 Phosphorylation Assay
1. Cells are plated into 384 well plates: 30 μl of Hep3B cells (4,000 cells/30 μl) in DMEM with 3% FBS are plated into wells of a tissue culture treated clear bottomed 384 well plate. Cells are allowed to adhere during an overnight incubation.
2. Cells are treated with compounds for two hours: 10 μl of DMEM with 3% FBS is added to each well with a final concentration of DMSO equal to 1%. Cells are incubated with compounds for 2 hours.
3. Cells are fixed and permeabilized. Cells are washed with 30 mM HEPES pH=7.3 then fixed in 4% paraformaldehyde in 30 mM HEPES pH=7.3 for one hour at room temperature. The fix is removed by washing the cells with Tris buffered saline (TBS) and the cells are permeabilized by incubation in TBS with 0.5% triton X-100 for 30 minutes at room temperature. Triton is removed by washing the cells with TBS.
4. […] Incubate primary H5 Ab (1/250 ) overnight at 4 degrees in TBS with 1% BSA and 0.1% Tween-20. The next day wash cells with TBS. […] Wash cells with PBS.
5. Measure staining using the In-cell Analyzer system from GE Healthcare.

CDK1/cyclinB = molecular target: T2, CDK1/cyclinB (Homo sapiens, UniProt P06493); test: CDK1/cyclinB kinase assay, IMAP fluorescence polarization; type: biochemical; details: read-out: CDK1 IC50
T2 construct: purchased Millipore
Protocol: as §1, §2, §3
The samples were allowed to incubate for one more hour at room temperature and then the fluorescence polarization was measured.

CDK9/cyclinT1 = molecular target: T3, CDK9/cyclinT1 (Homo sapiens, UniProt P50750); test: CDK9/cyclinT1 kinase assay, IMAP fluorescence polarization; type: biochemical
T3 construct: purchased Millipore
Protocol: as §1, §2, §3
CDK9/CDK1/CDK7: final stop concentration is 1× Developer buffer (85% A/15% B), IMAP beads 1/400
as §4

CDK4 = CDK4 (Homo sapiens, UniProt P11802); test: CDK4 kinase assay (Table F); type: biochemical
CDK5 = CDK5 (Homo sapiens, UniProt Q00535); test: CDK5 kinase assay (Table F); type: biochemical
CDK5, sequence (Q00535 whole entry, species assumed): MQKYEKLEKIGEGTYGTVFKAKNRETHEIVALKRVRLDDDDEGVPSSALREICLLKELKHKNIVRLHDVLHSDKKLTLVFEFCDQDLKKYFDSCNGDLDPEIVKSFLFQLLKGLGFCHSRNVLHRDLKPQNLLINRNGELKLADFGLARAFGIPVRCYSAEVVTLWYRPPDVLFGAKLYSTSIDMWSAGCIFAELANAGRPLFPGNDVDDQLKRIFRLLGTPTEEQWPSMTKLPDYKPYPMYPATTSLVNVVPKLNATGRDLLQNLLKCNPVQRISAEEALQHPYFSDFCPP
CDK5, sequence (Q15078 whole entry partner, species assumed): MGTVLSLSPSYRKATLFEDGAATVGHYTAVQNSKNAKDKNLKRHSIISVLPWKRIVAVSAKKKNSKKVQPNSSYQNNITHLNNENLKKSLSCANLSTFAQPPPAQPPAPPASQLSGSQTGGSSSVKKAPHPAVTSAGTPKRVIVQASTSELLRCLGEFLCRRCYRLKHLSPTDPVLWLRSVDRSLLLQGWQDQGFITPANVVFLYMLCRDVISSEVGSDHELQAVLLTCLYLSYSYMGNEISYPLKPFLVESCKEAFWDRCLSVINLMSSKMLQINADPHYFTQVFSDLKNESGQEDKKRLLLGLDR

T3 sequence (P50750 whole entry): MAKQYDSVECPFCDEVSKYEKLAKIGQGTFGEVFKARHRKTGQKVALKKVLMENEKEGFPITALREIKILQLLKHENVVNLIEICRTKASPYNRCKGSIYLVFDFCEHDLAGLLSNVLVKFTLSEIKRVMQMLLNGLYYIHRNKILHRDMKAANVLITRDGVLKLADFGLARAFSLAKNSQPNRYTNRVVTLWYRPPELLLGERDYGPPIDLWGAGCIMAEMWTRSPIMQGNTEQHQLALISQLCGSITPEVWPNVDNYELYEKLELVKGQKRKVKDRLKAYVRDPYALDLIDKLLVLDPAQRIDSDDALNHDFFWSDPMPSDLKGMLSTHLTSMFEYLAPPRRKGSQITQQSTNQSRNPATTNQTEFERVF
T3 sequence (O60563 whole entry partner): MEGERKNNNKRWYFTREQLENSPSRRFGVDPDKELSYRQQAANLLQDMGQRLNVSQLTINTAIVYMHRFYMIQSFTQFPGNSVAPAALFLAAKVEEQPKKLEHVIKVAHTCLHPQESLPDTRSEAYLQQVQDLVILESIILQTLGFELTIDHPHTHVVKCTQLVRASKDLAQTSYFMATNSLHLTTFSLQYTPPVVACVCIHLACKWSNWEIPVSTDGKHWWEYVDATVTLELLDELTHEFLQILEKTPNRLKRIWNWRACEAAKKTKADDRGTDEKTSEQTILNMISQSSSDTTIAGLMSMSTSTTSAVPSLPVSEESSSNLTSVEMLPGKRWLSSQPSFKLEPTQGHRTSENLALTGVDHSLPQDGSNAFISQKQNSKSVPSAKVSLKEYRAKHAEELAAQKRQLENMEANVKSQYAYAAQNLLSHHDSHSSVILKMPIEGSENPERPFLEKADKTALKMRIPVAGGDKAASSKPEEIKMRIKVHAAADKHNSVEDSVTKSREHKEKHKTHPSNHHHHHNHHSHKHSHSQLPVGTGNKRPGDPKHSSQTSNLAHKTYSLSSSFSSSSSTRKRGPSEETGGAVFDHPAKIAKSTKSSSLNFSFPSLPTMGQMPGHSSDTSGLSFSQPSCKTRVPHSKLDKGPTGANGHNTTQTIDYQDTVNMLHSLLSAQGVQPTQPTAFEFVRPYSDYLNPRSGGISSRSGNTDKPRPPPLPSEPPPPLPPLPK
CDK4, sequence (P11802 whole entry, species assumed): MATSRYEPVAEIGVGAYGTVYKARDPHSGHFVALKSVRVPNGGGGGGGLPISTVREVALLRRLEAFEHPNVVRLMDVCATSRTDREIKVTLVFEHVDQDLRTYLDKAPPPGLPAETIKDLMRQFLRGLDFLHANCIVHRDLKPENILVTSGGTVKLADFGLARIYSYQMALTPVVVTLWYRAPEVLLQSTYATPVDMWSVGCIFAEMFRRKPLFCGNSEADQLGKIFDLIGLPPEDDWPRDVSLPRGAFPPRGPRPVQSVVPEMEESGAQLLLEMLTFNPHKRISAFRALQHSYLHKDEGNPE
CDK4, sequence (P24385 whole entry partner, species assumed): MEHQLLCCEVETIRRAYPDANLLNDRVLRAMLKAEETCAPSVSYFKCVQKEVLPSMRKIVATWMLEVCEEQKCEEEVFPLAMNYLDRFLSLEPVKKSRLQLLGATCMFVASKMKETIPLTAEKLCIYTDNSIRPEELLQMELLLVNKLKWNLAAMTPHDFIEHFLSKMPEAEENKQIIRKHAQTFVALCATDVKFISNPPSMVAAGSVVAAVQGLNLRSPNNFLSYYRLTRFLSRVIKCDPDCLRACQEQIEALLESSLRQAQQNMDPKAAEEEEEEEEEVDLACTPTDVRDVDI
T2 sequence (P06493 whole entry): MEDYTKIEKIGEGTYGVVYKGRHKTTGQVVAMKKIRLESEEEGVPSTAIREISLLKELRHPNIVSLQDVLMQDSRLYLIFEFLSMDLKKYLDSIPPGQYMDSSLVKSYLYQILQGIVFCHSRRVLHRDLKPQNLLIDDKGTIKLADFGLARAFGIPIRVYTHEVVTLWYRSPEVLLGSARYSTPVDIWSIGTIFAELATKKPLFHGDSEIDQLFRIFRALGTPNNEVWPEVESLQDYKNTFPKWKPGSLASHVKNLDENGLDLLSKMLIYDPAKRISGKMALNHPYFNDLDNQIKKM
T2 sequence (P14635 whole entry partner): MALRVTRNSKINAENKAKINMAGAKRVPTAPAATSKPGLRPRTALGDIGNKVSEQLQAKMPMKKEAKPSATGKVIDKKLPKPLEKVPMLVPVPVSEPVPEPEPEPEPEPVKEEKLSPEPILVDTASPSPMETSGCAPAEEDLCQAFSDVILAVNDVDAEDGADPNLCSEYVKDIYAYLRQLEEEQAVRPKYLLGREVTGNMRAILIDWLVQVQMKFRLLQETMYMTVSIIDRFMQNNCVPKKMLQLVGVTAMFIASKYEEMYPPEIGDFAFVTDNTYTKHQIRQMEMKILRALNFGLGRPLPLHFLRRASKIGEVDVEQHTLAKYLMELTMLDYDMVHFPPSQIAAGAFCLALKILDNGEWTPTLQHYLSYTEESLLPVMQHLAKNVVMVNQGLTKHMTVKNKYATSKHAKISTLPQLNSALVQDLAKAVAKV

IC50 (CDK2/cyclinA) [µM] | IC50 [1] [µM] | IC50 (CDK1/cyclinB) [µM] | IC50 (CDK9/cyclinT1) [µM] | IC50 (CDK4) [µM] | IC50 (CDK5) [µM] | SMILES
> 50 | > 50 | > 50 | < 5 | – | – | Cc1c(-c2ccnc(Nc3cccc(Cl)c3)n2)ccnc1Cl [Compound 2, [4-(2-Chloro-3-methyl-pyridin-4-yl)-pyrimidin-2-yl]-(3-chloro-phenyl)-amine]
< 5 | 5 to 15 | 5 to 15 | < 5 | – | – | Cc1c(-c2ccnc(Nc3cccc(Cl)c3)n2)ccnc1NCCCN1CCOCC1 [Compound 22, (3-Chloro-phenyl)-{4-[3-methyl-2-(3-morpholin-4-yl-propylamino)-pyridin-4-yl]-pyrimidin-2-yl}-amine]
< 5 | < 5 | < 5 | < 5 | – | – | CC(=O)NCCCNc1cc(-c2ccnc(Nc3cccc(Cl)c3)n2)cc(C)n1 [Compound 42, N-(3-{4-[2-(3-Chloro-phenylamino)-pyrimidin-4-yl]-6-methyl-pyridin-2-ylamino}-propyl)-acetamide]
< 5 | – | < 5 | < 5 | 15 to 50 | < 5 | Cc1cnccc1-c1ccnc(Nc2cccc(Cl)c2)n1 [Compound 44, (3-Chloro-phenyl)-[4-(3-methyl-pyridin-4-yl)-pyrimidin-2-yl]-amine]
< 5 | – | < 5 | < 5 | 5 to 15 | < 5 | CN(C)CCCNc1ncccc1-c1ccnc(Nc2cccc(Cl)c2)n1 [Compound 63, N-{3-[2-(3-Chloro-phenylamino)-pyrimidin-4-yl]-pyridin-2-yl}-N′,N′-dimethyl-propane-1,3-diamine]
< 5 | – | < 5 | < 5 | 5 to 15 | < 5 | CC(C)NCCCNc1ncccc1-c1ccnc(Nc2cccc(Cl)c2)n1 [Compound 64, N-{3-[2-(3-Chloro-phenylamino)-pyrimidin-4-yl]-pyridin-2-yl}-N′-isopropyl-propane-1,3-diamine]
5 to 15 | – | > 50 | < 5 | 15 to 50 | 5 to 15 | CC(=O)NCCCNc1ncccc1-c1ccnc(Nc2cccc(S(C)(=O)=O)c2)n1 [Compound 67, N-(3-{3-[2-(3-Methanesulfonyl-phenylamino)-pyrimidin-4-yl]-pyridin-2-ylamino}-propyl)-acetamide]
< 5 | – | < 5 | < 5 | 15 to 50 | < 5 | CC(=O)NCCCNc1ncccc1-c1ccnc(Nc2cccc(S(N)(=O)=O)c2)n1 [Compound 68, N-(3-{3-[2-(3-Sulfamoyl-phenylamino)-pyrimidin-4-yl]-pyridin-2-ylamino}-propyl)-acetamide]
< 5 | – | < 5 | < 5 | 15 to 50 | < 5 | CC(=O)NCCCNc1ncccc1-c1ccnc(Nc2cccc(C#N)c2)n1 [Compound 69, N-(3-{3-[2-(3-Cyano-phenylamino)-pyrimidin-4-yl]-pyridin-2-ylamino}-propyl)-acetamide]
15 to 50 | – | < 5 | < 5 | 15 to 50 | < 5 | NCCCOc1ncccc1-c1ccnc(Nc2cccc(Cl)c2)n1 [Compound 120, {4-[2-(3-Amino-propoxy)-pyridin-3-yl]-pyrimidin-2-yl}-(3-chloro-phenyl)-amine]
15 to 50 | – | 5 to 15 | < 5 | 15 to 50 | 15 to 50 | CC(=O)NCCCOc1ncccc1-c1ccnc(Nc2cccc(Cl)c2)n1 [Compound 121, N-(3-{3-[2-(3-Chloro-phenylamino)-pyrimidin-4-yl]-pyridin-2-yloxy}-propyl)-acetamide]

Continued, compound first:

SMILES | IC50 (CDK2/cyclinA) [µM] | IC50 [1] [µM] | IC50 (CDK1/cyclinB) [µM] | IC50 (CDK9/cyclinT1) [µM] | IC50 (CDK4) [µM] | IC50 (CDK5) [µM]
Cc1c(-c2ccnc(Nc3cccc(Cl)c3)n2)ccnc1NCc1ccccc1 [Compound 21, [4-(2-Benzylamino-3-methyl-pyridin-4-yl)-pyrimidin-2-yl]-(3-chloro-phenyl)-amine] | < 5 | 5 to 15 | < 5 | < 5 | – | –
COc1cnccc1-c1nc(Nc2cccc(S(N)(=O)=O)c2)ncc1C [Compound 47, 3-[4-(3-Methoxy-pyridin-4-yl)-5-methyl-pyrimidin-2-ylamino]-benzenesulfonamide] | < 5 | – | 5 to 15 | < 5 | < 5 | < 5
Clc1cccc(Nc2nccc(-c3cccnc3NCCc3c[nH]cn3)n2)c1 [Compound 79] | < 5 | – | < 5 | < 5 | 15 to 50 | < 5
NS(=O)(=O)c1cccc(Nc2nccc(-c3cccnc3NCCCn3ccnc3)n2)c1 [Compound 83, 3-{4-[2-(3-Imidazol-1-yl-propylamino)-pyridin-3-yl]-pyrimidin-2-ylamino}-benzenesulfonamide] | < 5 | – | < 5 | < 5 | 15 to 50 | < 5
CCCCNS(=O)(=O)c1cccc(Nc2nccc(-c3cccnc3OC)n2)c1 [Compound 102, N-Butyl-3-[4-(2-methoxy-pyridin-3-yl)-pyrimidin-2-ylamino]-benzenesulfonamide] | < 5 | 15 to 50 | < 5 | < 5 | – | –
CCN(CC)S(=O)(=O)c1cccc(Nc2nccc(-c3cccnc3OC)n2)c1 [Compound 105, N,N-Diethyl-3-[4-(2-methoxy-pyridin-3-yl)-pyrimidin-2-ylamino]-benzenesulfonamide] | > 50 | – | > 50 | > 50 | 15 to 50 | 5 to 15
COc1ncccc1-c1ccnc(Nc2cccc(S(=O)(=O)N3CCCCC3)c2)n1 [Compound 107, [4-(2-Methoxy-pyridin-3-yl)-pyrimidin-2-yl]-[3-(piperidine-1-sulfonyl)-phenyl]-amine] | < 5 | – | 5 to 15 | < 5 | – | –
CCOC(=O)c1cccc(Nc2nccc(-c3cccnc3OC)n2)c1 [Compound 108, 3-[4-(2-Methoxy-pyridin-3-yl)-pyrimidin-2-ylamino]-benzoic acid ethyl ester] | < 5 | – | < 5 | < 5 | – | –
COc1ncccc1-c1ccnc(Nc2cccc(C(=O)OC(C)(C)C)c2)n1 [Compound 109, 3-[4-(2-Methoxy-pyridin-3-yl)-pyrimidin-2-ylamino]-benzoic acid tert-butyl ester] | < 5 | – | > 50 | < 5 | – | –
COc1ncccc1-c1ccnc(Nc2cccc(-c3nncn3C)c2)n1 [Compound 111, [4-(2-Methoxy-pyridin-3-yl)-pyrimidin-2-yl]-[3-(4-methyl-4H-[1,2,4]triazo1-3-yl)-phenyl]-amine] | < 5 | – | 5 to 15 | < 5 | – | –
COc1ncccc1-c1ccnc(Nc2cccc(C3CCNCC3)c2)n1 [Compound 113, [4-(2-Methoxy-pyridin-3-yl)-pyrimidin-2-yl]-(3-piperidin-4-yl-phenyl)-amine] | < 5 | – | < 5 | < 5 | – | –
COc1ncccc1-c1ccnc(Nc2cccc(C3CCN(C(=O)OC(C)(C)C)CC3)c2)n1 [Compound 114, 4-{3-[4-(2-Methoxy-pyridin-3-yl)-pyrimidin-2-ylamino]-phenyl}-piperidine-1-carboxylic acid tert-butyl ester] | > 50 | – | > 50 | > 50 | – | –
COc1ncccc1-c1ccnc(Nc2cccc(-c3ccccc3)c2)n1 [Compound 115, Biphenyl-3-yl-[4-(2-methoxy-pyridin-3-yl)-pyrimidin-2-yl]-amine] | > 50 | – | > 50 | < 5 | – | –
COc1ncccc1-c1ccnc(Nc2ccc([N+](=O)[O-])cc2)n1 [Compound 116, [4-(2-Methoxy-pyridin-3-yl)-pyrimidin-2-yl]-(4-nitro-phenyl)-amine] | > 50 | – | > 50 | > 50 | – | –
COc1ncccc1-c1ccnc(Nc2ccc(N3CCN(C)CC3)cc2)n1 [Compound 117, [4-(2-Methoxy-pyridin-3-yl)-pyrimidin-2-yl]-[4-(4-methyl-piperazin-1-yl)-phenyl]-amine] | < 5 | – | 5 to 15 | < 5 | < 5 | < 5
